# Reference: ChEMBL document CHEMBL5696442, “Discovery of type II inhibitors of TGFβ-activated kinase 1 (TAK1) and mitogen-activated protein kinase kinase kinase kinase 2 (MAP4K2)” (J Med Chem, 2015)
# How the values were obtained:
# [1] = target: Phosphatidylinositol 3-kinase catalytic subunit type 3 (Homo sapiens) (UniProt Q8NEB9); experiment: Inhibition of PIK3C3 ATP labeling site in human Huh-7 cell lysate at 1 uM by KiNativ Profiling analysis relative to control; type: subcellular
# [2] = target: Serine/threonine-protein kinase 4 (Homo sapiens) (UniProt Q13043); experiment: Inhibition of MST1 Lys2 labeling site harbouring IHRDIKAGNILLNTEGHAK in human Huh-7 cell lysate at 1 uM by KiNativ Profiling analysis relative to control
# [3] = Inhibition of MAP3K2/3 K2 labeling site in human Huh-7 cells at 1 uM by KiNativ Profiling analysis relative to control; conditions: condition cancer
# [4] = target: T1, Eukaryotic elongation factor 2 kinase (Homo sapiens) (UniProt O00418); experiment: Inhibition of eEF2K ATP labeling site harbouring YIKYNSNSGFVR in human A-375 cells at 0.05 uM by KiNativ Profiling analysis relative to control; type: cell-based
# T1 sequence (whole entry): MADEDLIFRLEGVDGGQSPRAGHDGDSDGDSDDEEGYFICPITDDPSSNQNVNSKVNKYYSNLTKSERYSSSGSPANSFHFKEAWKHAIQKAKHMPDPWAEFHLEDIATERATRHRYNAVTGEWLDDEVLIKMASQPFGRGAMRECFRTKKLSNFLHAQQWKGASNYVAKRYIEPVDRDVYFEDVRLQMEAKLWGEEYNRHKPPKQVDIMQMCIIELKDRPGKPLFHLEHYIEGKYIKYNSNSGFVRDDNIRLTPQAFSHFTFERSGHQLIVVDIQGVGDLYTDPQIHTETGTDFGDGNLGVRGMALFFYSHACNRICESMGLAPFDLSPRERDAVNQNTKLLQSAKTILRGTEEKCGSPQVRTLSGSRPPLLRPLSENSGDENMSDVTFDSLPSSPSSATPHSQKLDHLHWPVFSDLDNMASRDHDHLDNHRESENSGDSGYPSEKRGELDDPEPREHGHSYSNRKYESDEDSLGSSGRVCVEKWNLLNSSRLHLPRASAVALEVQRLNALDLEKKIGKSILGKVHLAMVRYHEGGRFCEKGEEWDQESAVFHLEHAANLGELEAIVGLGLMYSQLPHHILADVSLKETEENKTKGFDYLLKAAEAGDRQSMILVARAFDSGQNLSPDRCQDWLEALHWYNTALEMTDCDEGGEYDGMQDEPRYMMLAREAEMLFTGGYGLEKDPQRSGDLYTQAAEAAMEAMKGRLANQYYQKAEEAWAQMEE
# [5] = target: TRAF2 and NCK-interacting protein kinase (Homo sapiens) (UniProt Q9UKE5); experiment: Inhibition of ZC2 Lys2 labeling site in human A-375 cells at 5 uM by KiNativ Profiling analysis relative to control; type: cell-based
# [6] = target: Angiopoietin-1 receptor (Homo sapiens) (UniProt Q02763); experiment: Inhibition of TIE2 (unknown origin) at 1 uM by Ambit Kinomescan binding assay relative to control
# [7] = target: RAC-gamma serine/threonine-protein kinase (Homo sapiens) (UniProt Q9Y243); experiment: Inhibition of AKT3 (unknown origin) at 1 uM by Ambit Kinomescan binding assay relative to control
# [8] = target: Phosphatidylinositol 4,5-bisphosphate 3-kinase catalytic subunit beta isoform (Homo sapiens) (UniProt P42338); experiment: Inhibition of PIK3CB (unknown origin) at 1 uM by Ambit Kinomescan binding assay relative to control; values are per cent of control
# Sequence of Phosphatidylinositol 4,5-bisphosphate 3-kinase catalytic subunit beta isoform (Homo sapiens) (P42338 whole entry, looked up, canonical isoform): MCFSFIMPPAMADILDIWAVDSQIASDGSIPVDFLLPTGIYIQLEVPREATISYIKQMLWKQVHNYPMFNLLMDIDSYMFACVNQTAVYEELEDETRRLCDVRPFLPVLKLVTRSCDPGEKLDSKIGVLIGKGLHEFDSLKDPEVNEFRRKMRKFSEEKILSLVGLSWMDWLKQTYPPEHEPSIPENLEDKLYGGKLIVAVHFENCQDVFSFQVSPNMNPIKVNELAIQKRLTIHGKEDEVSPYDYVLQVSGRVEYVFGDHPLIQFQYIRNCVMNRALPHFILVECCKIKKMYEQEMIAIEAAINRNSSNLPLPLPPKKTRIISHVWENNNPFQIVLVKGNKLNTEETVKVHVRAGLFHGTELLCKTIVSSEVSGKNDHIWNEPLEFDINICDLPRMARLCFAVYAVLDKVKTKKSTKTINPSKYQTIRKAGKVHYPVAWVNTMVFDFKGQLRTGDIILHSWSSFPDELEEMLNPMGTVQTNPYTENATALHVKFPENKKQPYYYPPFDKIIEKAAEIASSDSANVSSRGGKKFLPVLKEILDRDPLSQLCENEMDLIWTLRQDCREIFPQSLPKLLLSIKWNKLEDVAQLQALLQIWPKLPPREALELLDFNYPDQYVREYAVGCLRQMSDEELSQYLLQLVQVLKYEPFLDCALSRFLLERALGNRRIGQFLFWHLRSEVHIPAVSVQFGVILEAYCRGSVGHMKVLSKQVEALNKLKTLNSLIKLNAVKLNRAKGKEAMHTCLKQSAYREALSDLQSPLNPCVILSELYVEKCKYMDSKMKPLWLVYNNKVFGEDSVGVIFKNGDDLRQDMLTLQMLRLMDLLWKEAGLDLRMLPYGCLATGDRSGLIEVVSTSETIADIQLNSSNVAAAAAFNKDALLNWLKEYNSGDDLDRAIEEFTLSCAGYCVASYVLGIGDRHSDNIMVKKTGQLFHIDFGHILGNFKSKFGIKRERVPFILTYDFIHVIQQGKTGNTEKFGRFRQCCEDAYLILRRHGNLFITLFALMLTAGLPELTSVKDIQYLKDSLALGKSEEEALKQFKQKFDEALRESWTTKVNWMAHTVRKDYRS
# Sequence of TRAF2 and NCK-interacting protein kinase (Homo sapiens) (Q9UKE5 whole entry, looked up): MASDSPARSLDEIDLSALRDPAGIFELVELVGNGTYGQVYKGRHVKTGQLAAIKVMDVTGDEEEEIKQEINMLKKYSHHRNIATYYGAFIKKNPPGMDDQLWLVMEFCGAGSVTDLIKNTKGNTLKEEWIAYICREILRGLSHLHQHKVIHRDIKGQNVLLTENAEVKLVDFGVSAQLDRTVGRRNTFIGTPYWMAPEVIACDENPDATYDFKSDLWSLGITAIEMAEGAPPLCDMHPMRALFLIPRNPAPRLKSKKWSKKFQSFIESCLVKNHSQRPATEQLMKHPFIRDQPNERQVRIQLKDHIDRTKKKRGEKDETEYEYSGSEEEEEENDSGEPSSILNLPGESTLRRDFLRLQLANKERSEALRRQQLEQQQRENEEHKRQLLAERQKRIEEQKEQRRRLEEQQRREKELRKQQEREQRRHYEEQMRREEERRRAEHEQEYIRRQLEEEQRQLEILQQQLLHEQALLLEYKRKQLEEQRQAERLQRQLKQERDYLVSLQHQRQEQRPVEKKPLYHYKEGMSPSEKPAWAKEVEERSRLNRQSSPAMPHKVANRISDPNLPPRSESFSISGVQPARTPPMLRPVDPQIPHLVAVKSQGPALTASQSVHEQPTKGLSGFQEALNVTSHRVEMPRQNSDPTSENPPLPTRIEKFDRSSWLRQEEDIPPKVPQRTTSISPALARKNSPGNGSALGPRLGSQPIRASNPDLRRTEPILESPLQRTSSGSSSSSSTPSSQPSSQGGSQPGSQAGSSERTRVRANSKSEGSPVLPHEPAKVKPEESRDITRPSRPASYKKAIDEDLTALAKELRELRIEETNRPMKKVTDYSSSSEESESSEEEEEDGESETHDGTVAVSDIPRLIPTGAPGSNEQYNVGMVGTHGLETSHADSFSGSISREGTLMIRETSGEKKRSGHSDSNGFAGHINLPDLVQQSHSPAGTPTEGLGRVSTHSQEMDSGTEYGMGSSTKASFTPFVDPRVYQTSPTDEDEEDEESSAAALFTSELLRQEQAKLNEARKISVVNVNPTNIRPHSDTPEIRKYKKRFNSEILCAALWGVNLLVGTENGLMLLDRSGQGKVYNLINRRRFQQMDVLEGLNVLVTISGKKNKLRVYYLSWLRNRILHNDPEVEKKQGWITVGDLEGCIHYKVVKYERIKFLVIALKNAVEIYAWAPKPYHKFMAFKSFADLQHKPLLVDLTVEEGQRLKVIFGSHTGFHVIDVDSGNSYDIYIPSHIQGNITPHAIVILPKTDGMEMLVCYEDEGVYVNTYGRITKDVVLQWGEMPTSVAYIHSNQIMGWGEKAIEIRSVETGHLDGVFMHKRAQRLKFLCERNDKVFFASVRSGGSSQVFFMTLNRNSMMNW
# Sequence of Angiopoietin-1 receptor (Homo sapiens) (Q02763 whole entry): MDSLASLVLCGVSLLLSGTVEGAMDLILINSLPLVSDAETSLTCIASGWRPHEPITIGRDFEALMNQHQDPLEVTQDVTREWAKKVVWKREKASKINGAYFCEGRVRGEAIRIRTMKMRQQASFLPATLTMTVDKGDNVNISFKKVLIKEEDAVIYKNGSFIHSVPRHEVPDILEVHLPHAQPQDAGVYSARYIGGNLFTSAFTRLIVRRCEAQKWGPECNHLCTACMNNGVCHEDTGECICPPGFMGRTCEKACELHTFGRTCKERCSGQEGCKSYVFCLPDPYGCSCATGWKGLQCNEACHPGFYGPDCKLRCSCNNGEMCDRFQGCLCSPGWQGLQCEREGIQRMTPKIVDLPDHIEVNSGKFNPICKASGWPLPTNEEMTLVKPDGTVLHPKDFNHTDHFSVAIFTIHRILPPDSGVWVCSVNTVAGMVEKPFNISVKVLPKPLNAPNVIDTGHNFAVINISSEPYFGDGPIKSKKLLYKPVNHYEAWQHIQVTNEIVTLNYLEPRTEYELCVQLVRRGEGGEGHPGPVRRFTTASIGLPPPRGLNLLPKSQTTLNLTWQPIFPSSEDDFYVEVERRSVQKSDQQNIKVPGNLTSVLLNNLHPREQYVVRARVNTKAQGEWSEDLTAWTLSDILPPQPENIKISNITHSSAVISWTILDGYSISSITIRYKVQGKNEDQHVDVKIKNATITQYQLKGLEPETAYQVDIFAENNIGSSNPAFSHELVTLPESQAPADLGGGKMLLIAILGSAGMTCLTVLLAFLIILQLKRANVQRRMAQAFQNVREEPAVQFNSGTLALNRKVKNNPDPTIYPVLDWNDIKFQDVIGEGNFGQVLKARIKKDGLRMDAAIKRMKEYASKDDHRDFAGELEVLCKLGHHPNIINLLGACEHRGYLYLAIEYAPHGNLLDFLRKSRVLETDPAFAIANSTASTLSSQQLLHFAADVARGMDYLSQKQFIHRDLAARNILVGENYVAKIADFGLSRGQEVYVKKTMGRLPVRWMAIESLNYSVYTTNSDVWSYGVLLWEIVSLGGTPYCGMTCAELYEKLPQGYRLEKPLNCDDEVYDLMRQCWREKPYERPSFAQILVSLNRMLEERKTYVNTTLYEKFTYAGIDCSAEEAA
# Sequence of Phosphatidylinositol 3-kinase catalytic subunit type 3 (Homo sapiens) (Q8NEB9 whole entry): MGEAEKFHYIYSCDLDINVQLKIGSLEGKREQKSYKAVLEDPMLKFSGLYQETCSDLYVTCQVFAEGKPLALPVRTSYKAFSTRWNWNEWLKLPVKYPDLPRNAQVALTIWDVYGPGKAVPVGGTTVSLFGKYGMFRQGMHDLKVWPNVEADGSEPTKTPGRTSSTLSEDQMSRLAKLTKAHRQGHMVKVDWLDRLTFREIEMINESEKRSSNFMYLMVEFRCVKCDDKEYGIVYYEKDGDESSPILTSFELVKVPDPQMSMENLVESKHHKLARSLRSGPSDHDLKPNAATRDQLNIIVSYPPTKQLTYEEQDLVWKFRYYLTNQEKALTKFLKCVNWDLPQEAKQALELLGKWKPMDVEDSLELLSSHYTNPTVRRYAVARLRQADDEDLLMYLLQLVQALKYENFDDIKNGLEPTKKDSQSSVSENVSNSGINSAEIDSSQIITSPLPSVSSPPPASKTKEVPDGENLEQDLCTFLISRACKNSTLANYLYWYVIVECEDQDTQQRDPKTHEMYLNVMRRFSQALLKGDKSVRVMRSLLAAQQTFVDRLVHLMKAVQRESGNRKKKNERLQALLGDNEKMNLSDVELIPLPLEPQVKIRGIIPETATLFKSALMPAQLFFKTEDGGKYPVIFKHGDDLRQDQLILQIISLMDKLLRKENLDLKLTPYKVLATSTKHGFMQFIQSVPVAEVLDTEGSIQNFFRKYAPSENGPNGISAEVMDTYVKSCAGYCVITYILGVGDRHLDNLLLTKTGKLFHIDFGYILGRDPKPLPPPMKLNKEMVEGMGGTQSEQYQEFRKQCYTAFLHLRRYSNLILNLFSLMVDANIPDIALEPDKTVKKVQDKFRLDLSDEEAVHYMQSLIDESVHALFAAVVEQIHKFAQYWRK
# Sequence of RAC-gamma serine/threonine-protein kinase (Homo sapiens) (Q9Y243 whole entry, canonical isoform): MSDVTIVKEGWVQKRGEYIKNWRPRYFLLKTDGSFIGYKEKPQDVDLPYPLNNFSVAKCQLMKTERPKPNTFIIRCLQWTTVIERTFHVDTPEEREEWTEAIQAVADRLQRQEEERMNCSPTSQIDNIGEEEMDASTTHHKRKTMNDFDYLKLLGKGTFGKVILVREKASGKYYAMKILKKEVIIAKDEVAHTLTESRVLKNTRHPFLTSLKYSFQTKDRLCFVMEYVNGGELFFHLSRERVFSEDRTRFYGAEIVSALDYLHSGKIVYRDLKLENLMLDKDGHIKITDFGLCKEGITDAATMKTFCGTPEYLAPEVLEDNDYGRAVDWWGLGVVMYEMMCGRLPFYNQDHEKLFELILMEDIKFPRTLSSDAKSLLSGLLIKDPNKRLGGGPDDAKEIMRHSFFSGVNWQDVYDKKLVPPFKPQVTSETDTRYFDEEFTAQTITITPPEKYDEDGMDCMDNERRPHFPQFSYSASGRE
compound,measurement,setting,value
CNc1cc(Oc2cc(C(=O)Nc3cc(N4CCN(C)CC4)cc(C(F)(F)F)c3)ccc2C)ncn1,inhibition,[1],-4.2%
same,inhibition,[2],14.4%
CCN1CCN(Cc2ccc(NC(=O)c3ccc(C)c(Oc4ccnc5[nH]ccc45)c3)cc2C(F)(F)F)CC1,inhibition at 1 µM,[3],7.4%
same,inhibition,[4],12.7%
same,inhibition,[5],92.7%
CCN1CCN(Cc2ccc(NC(=O)c3ccc(C)c(/C=C/c4cnc5[nH]ccc5c4OC)c3)cc2C(F)(F)F)CC1,inhibition,[6],0%
same,inhibition,[7],100%
same,residual activity,[8],100%
